Data: patent publication US12086788B2, “Substituted pyrazines as inhibitors of BTK, and mutants thereof” (Newave Pharmaceutical Inc., priority 2018, dated 2024)
“Also recorded” adds a separate entry of the source.

What was measured:
WT BTK [1] = molecular target: T1, WT BTK (Homo sapiens, UniProt Q06187); experiment: In vitro dialysis assay (irreversibility assay); assay type: biochemical; settings: from recovery after 24 h dialysis
Method: The compound-enzyme complex was dialyzed against the same buffer supplemented with 40 mM ATP for 24 hr. Cumulative dialysis factor>160,000×. After dialysis, the BTK activity was measured in the presence […] and 1 mM substrate peptide and compared to that in non-dialyzed samples. Assay buffer: 100 mM HEPES, pH7.5; 0.1% BSA, 0.01% Triton-X 100; 5 mM MgCl2; 1 mM DTT.

C481S BTK [2] = molecular target: T2, C481S BTK (Homo sapiens, UniProt Q06187, C481S); experiment: Caliper-based biochemical enzymatic assay (IC50), C481S BTK; settings: for IC50: 0.5 nM enzyme, ATP 16 μM, room temperature 3 h, read-out: C481S BTK IC50 (nM) (reversible inhibition)
T2 sequence (Q06187 whole entry C481S): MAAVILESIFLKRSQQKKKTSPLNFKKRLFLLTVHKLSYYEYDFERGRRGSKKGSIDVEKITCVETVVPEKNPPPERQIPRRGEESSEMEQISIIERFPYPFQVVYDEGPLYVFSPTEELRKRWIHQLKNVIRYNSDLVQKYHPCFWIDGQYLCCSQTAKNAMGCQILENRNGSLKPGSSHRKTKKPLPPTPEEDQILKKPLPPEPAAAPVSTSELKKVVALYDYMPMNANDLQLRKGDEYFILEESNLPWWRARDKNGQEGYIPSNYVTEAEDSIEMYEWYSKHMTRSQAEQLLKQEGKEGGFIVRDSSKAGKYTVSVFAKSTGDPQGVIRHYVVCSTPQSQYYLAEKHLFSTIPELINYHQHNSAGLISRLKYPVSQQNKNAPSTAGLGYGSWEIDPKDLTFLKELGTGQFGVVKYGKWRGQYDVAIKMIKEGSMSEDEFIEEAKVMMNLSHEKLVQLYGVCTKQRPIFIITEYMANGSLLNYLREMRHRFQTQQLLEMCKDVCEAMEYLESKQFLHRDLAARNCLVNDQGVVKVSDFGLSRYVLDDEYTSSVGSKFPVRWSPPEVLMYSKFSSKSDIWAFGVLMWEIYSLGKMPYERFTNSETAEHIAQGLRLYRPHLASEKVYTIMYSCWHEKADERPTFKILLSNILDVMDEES
Method: (§1) The reaction was then terminated with EDTA, final concentration 20 mM and the phosphorylated reaction product was quantified on a Caliper Desktop Profiler (Caliper LabChip 3000).

WT BTK [3] = molecular target: T1, WT BTK; experiment: Caliper-based biochemical enzymatic assay (IC50), WT BTK; settings: 0.5 nM enzyme, ATP 16 μM, room temperature 3 h; read-out: WT BTK IV50 (nM) (irreversible inhibition)
Method: as §1

[4] = tested on: basophil activation, B cell receptor activation, and constitutive p-BTK activity in whole blood lysates; settings: read-out: IC50s for basophil activation, B cell receptor activation, and constitutive p-BTK activity; cited from earlier work
mice = settings: even at higher doses; cited from earlier work
[5] = Phase I clinical trials, formulations containing GDC-0853; cited from earlier work
rats = settings: treatment for longer than 7 days; cited from earlier work
dogs = settings: even at higher doses; cited from earlier work
C481S BTK [6] = molecular target: T2, C481S BTK; experiment: Reversibility of binding to the C481S BTK enzyme; assay type: biochemical; settings: Cysteine residue not available for covalent binding

T1 sequence (Q06187 whole entry): as the sequence (Q06187 whole entry C481S) above, with S481C counted along it

| Structure (SMILES) | IC50 (C481S BTK [2]) [nM] | IC50 (WT BTK [3]) [nM] | fold more potent than ACT-196 in C481S BTK assay (C481S BTK [2]) | fold more potent than Ibrutinib in C481S BTK assay (C481S BTK [2]) | mode of binding to C481S BTK (C481S BTK [6]) | Conclusion (WT BTK) (WT BTK [1]) | IC50 [4] [nM] | pancreatic toxicity (mice) | tolerability [5] | pancreatic toxicity (rats) | pancreatic toxicity (dogs) |
| --- | --- | --- | --- | --- | --- | --- | --- | --- | --- | --- | --- |
| C[C@H]1CN(C2COC2)CCN1c1ccc(Nc2cc(-c3ccnc(N4CCn5c(cc6c5CC(C)(C)C6)C4=O)c3CO)cn(C)c2=O)nc1 [GDC-0853] |  |  |  |  |  | Reversible | 2 to 9 | does not occur | well-tolerated | pancreatic toxicity | does not occur |
| C=CC(=O)Nc1cc(Nc2nc(-c3ccnc(N4CCn5c(cc6c5CC(C)(C)C6)C4=O)c3C)cn(C)c2=O)ccc1N1CCN(C2COC2)C[C@@H]1C [Example 11, (S)—N-(5-((6-(2-(7,7-dimethyl-1-oxo-1,3,4,6,7,8-hexahydro-2H-cyclopenta[4,5]pyrrolo[1,2-a]pyrazin-2-yl)-3-methylpyridin-4-yl)-4-methyl-3-oxo-3,4-dihydropyrazin-2-yl)amino)-2-(2-methyl-4-(oxetan-3-yl)piperazin-1-yl)phenyl)acrylamide] | < 1 | < 1 |  |  |  | irreversible inhibitors; also recorded: Irreversible/covalent inhibition |  |  |  |  |  |
| C=CC(=O)Nc1cc(Nc2nc(-c3ccnc(N4CCn5c(cc6c5CC(C)(C)C6)C4=O)c3CO)cn(C)c2=O)ccc1N1CCN(C)CC1 [Example 2, N-(5-((6-(2-(7,7-dimethyl-1-oxo-1,3,4,6,7,8-hexahydro-2H-cyclopenta[4,5]pyrrolo[1,2-a]pyrazin-2-yl)-3-(hydroxymethyl)pyridin-4-yl)-4-methyl-3-oxo-3,4-dihydropyrazin-2-yl)amino)-2-(4-methylpiperazin-1-yl)phenyl)acrylamide] | 1.7 | 0.25 | 477 | 64 | reversibly bind | irreversible inhibitors; also recorded: Irreversible/covalent inhibition |  |  |  |  |  |

Further lines, with some results ahead:

| IC50 (C481S BTK [2]) [nM] | IC50 (WT BTK [3]) [nM] | fold more potent than ACT-196 in C481S BTK assay (C481S BTK [2]) | fold more potent than Ibrutinib in C481S BTK assay (C481S BTK [2]) | mode of binding to C481S BTK (C481S BTK [6]) | Structure (SMILES) | Conclusion (WT BTK) (WT BTK [1]) | IC50 [4] [nM] | pancreatic toxicity (mice) | tolerability [5] | pancreatic toxicity (rats) | pancreatic toxicity (dogs) |
| --- | --- | --- | --- | --- | --- | --- | --- | --- | --- | --- | --- |
| < 1 | < 1 |  |  |  | C=CC(=O)Nc1cc(Nc2nc(-c3ccnc(N4CCn5c(cc6c5CC(C)(C)C6)C4=O)c3CO)cn(C)c2=O)ccc1N1CCC(N2CCOCC2)CC1C (stereo not drawn) [Example 12, N-(5-((6-(2-(7,7-dimethyl-1-oxo-1,3,4,6,7,8-hexahydro-2H-cyclopenta[4,5]pyrrolo[1,2-a]pyrazin-2-yl)-3-(hydroxymethyl)pyridin-4-yl)-4-methyl-3-oxo-3,4-dihydropyrazin-2-yl)amino)-2-(2-methyl-4-morpholinopiperidin-1-yl)phenyl)acrylamide] | irreversible inhibitors; also recorded: Irreversible/covalent inhibition |  |  |  |  |  |
| < 1 | < 1 |  |  |  | C=CC(=O)Nc1cc(Nc2nc(-c3ccnc(N4CCn5c(cc6c5CC(C)(C)C6)C4=O)c3CO)cn(C)c2=O)ccc1N1CCN(C2COC2)C[C@@H]1C [Example 3, (S)—N-(5-((6-(2-(7,7-dimethyl-1-oxo-1,3,4,6,7,8-hexahydro-2H-cyclopenta[4,5]pyrrolo[1,2-a]pyrazin-2-yl)-3-(hydroxymethyl)pyridin-4-yl)-4-methyl-3-oxo-3,4-dihydropyrazin-2-yl)amino)-2-(2-methyl-4-(oxetan-3-yl)piperazin-1-yl)phenyl)acrylamide] | irreversible inhibitors; also recorded: Irreversible/covalent inhibition |  |  |  |  |  |
